Test results reported in patent publication US20160100579A1, “NEMATICIDAL N-(2-SUBSTITUTED 2-PHENYLETHYL)CARBOXAMIDES AND N-(2-SUBSTITUTED 2-PHENYLETHYL)-THIOCARBOXAMIDES” (priority 2013, published 2016).
Like-named read-outs stand apart in the source and are kept apart here.

Columns and labels:
[1] = tested on: Haemonchus contortus; test: Haemonchus contortus - Test (HAEMCO); format: in vivo; details: after 5 days, 100% = all larvae killed
Method: Haemonchus contortus—Test (HAEMCO)
(§1) Solvent: dimethyl sulfoxide
(§2) To produce a suitable preparation of active compound, 10 mg of active compound are dissolved in 0.5 ml solvent, and the concentrate is diluted with “Ringer's solution” to the desired concentration.
Approximately 40 larvae of the red stomach worm (Haemonchus contortus) are transferred into a test tube containing compound solution.
After 5 days percentage of larval mortality is recorded. 100% efficacy means all larvae are killed, 0% efficacy means no larvae are killed.

[2] = tested on: Meloidogyne incognita; test: Meloidogyne incognita - test (MELGIN); format: in vivo; details: 20 ppm; salad seedlings in sand; after 14 days; 100% = no galls found
Method: Meloidogyne incognita—test (MELGIN)
Solvent: 125.0 parts by weight of acetone
To produce a suitable preparation of active compound, 1 part by weight of active compound is mixed with the stated amount of solvent, and the concentrate is diluted with water to the desired concentration.
Vessels are filled with sand, a solution of the active ingredient, a suspension containing eggs and larvae of the southern root-knot nematode (Meloidogyne incognita) and salad seeds. The salad seeds germinate and the seedlings grow. Galls develop in the roots.
After 14 days the nematicidal activity is determined on the basis of the percentage of gall formation. 100% means that no galls were found; 0% means the number of galls found on the roots of the treated plants was equal to that in untreated control plants.

[3] = Measurement of log P values by HPLC on reversed phase columns (EEC directive 79/831 Annex V.A8; methods [a] pH 2.3, [b] pH 2.7, [c] pH 7.8); format: physicochemical; details: for chromatographic logP: reversed phase HPLC column
Method: Measurement of log P-values:
Measurement of log P values was performed according EEC directive 79/831 Annex V.A8 by HPLC (High Performance Liquid Chromatography) on reversed phase columns with the following methods:
^[a] Measurement was done at pH 2.3 with 0.1% phosphoric acid and acetonitrile as eluent with a linear gradient from 10% acetonitrile to 95% acetonitrile.
^[b] measurement of LC-MS was done at pH 2.7 with 0.1% formic acid in water and with acetonitrile (contains 0.1% formic acid) as eluent with a linear gradient from 10% acetonitrile to 95% acetonitrile.
^[c] Measurement with LC-MS was done at pH 7.8 with 0.001 molar ammonium hydrogen carbonate solution in water as eluent with a linear gradient from 10% acetonitrile to 95% acetonitrile.
Calibration was done with not branched alkan2-ones (with 3 to 16 carbon atoms) with known log P-values (measurement of log P values using retention times with linear interpolation between successive alkanones).. lambda-maX-values were determined using UV-spectra from 200 nm to 400 nm and the peak values of the chromatographic signals.

[4] = tested on: Cooperia curticei; format: in vivo; details: after 5 days, 100% = all larvae killed
Method: Cooperia curticei—Test (COOPCU)
as §1, §2
Approximately 40 nematode larvae (Cooperia curticei) are transferred into a test tube containing the compound solution.
After 5 days percentage of larval mortality is recorded. 100% efficacy means all larvae are killed; 0% efficacy means no larvae are killed.

[5] = method [b]: LC-MS at pH 2.7, 0.1% formic acid in water / acetonitrile
[6] = method [c]: LC-MS at pH 7.8, 0.001 molar ammonium hydrogen carbonate in water / acetonitrile
[7] = method [a]: HPLC, pH 2.3, 0.1% phosphoric acid / acetonitrile
[8] = method [b]: LC-MS, pH 2.7, 0.1% formic acid in water / acetonitrile
[9] = method [c]: LC-MS, pH 7.8, 0.001 molar ammonium hydrogen carbonate / acetonitrile

SMILES | nematicidal activity (percentage of gall formation) [2] [%] | log P [3, 5] | log P [3, 6] | logP [3, 8] | also measured
COC(c1ccc(Cl)cc1Cl)C(C)NC(=O)c1ccccc1Cl (centres unmarked) [Compound 30] | 100 |  |  |  | activity (efficacy: larval mortality) ([1]; 100 ppm): 100%
COC(c1ccccc1Cl)C(C)NC(=O)c1ccccc1C(F)F (centres unmarked) [Compound 140] | 90 | 3.42^[b] | 3.39^[c]; |  | 
COC(c1ccc(Cl)cc1Cl)C(C)NC(=O)c1cccnc1C(F)(F)F (centres unmarked) [Compound 39] | 90 |  |  |  | activity (efficacy: larval mortality) ([1]; 100 ppm): 100%
Cc1ccsc1C(=O)NCC(OCC1CC1)c1ccc(Cl)cc1 (centres unmarked) [Compound 6] |  |  |  |  | logP [3, 7]: 3.87^[a]; activity (efficacy: larval mortality) ([4]; 100 ppm): 90%
COC(c1ccc(Cl)cc1Cl)C(C)NC(=O)c1ccnn1C(F)F (centres unmarked) [Compound 123] |  | 3.09^[b] |  |  | activity (efficacy: larval mortality) ([1]; 20 ppm): 100%
COC(c1ccccc1Cl)C(C)NC(=O)c1cccnc1Cl (centres unmarked) [Compound 143] | 90 | 2.55^[b] | 2.53^[c]; |  | 
COC(c1ccc(Cl)cc1Cl)C1(NC(=O)c2cccnc2C(F)(F)F)CC1 (centres unmarked) [Compound 100] | 90 |  |  | 3.37^[b] | 
COC(c1ccc(Cl)cc1Cl)C(C)NC(=O)c1cccnc1Cl (centres unmarked) [Compound 34] |  |  |  |  | activity (efficacy: larval mortality) ([1]; 100 ppm): 90%
COC(CNC(=O)c1sccc1Cl)c1ccc(Cl)cc1 (centres unmarked) [Compound 69] |  |  |  | 3.41^[b] | activity (efficacy: larval mortality) ([1]; 100 ppm): 90%; logP [3, 9]: 3.39^[c];; activity (efficacy: larval mortality) ([4]; 100 ppm): 90%
COC(c1ccc(Cl)cc1)C(C)NC(=O)c1ccccc1C(F)F (centres unmarked) [Compound 136] |  | 3.46^[b] | 3.42^[c]; |  | activity (efficacy: larval mortality) ([1]; 20 ppm): 80%
COC(c1ccc(Cl)cc1Cl)C1(NC(=O)c2nccnc2C(F)(F)F)CC1 (centres unmarked) [Compound 99] |  |  |  | 3.61^[b] | activity (efficacy: larval mortality) ([4]; 20 ppm): 100%
COC(c1ccccc1Cl)C(C)NC(=O)c1cccnc1C(F)(F)F (centres unmarked) [Compound 209] |  | 3.27^[b] | 3.24^[c]; |  | activity (efficacy: larval mortality) ([4]; 20 ppm): 90%
COC(c1ccc(Cl)cc1)C(C)NC(=O)c1sccc1Br (centres unmarked) [Compound 65] |  |  |  | 3.89^[b] | activity (efficacy: larval mortality) ([1]; 100 ppm): 100%; logP [3, 9]: 3.83^[c];; activity (efficacy: larval mortality) ([4]; 100 ppm): 80%
CCOC(c1ccc(Cl)cc1Cl)C(C)NC(=O)c1ccsc1I (centres unmarked) [Compound 205] |  | 4.63^[b] | 4.60^[c]; |  | activity (efficacy: larval mortality) ([1]; 20 ppm): 90%; activity (efficacy: larval mortality) ([4]; 20 ppm): 100%
C=CCOC(CNC(=O)c1sccc1C)c1ccc(Cl)cc1 (centres unmarked) [Compound 2] |  |  |  |  | activity (efficacy: larval mortality) ([1]; 20 ppm): 90%; activity (efficacy: larval mortality) ([4]; 20 ppm): 100%
COC(c1ccc(Cl)cc1)C(C)NC(=O)c1ccccc1C (centres unmarked) [Compound 129] |  | 3.30^[b] | 3.20^[c]; |  | activity (efficacy: larval mortality) ([1]; 20 ppm): 80%
COC(CNC(=O)c1nccnc1C(F)(F)F)c1cc(Cl)cc(Cl)c1 (centres unmarked) [Compound 120] |  | 3.42^[b] |  |  | activity (efficacy: larval mortality) ([1]; 20 ppm): 80%
COC(c1ccc(Cl)cc1)C(C)NC(=O)c1ccccc1Cl (centres unmarked) [Compound 130] |  |  | 3.21^[c] |  | activity (efficacy: larval mortality) ([1]; 20 ppm): 80%; activity (efficacy: larval mortality) ([4]; 20 ppm): 80%
COC(c1ccccc1Cl)C(C)NC(=O)c1c(F)cccc1C(F)(F)F (centres unmarked) [Compound 141] | 90 | 3.52^[b] | 3.50^[c]; |  | 
COC(c1ccccc1Cl)C(C)NC(=O)c1c(F)cccc1F (centres unmarked) [Compound 144] | 90 | 3.11^[b] | 3.08^[c]; |  | 
COC(c1ccc(Cl)cc1Cl)C(C)NC(=O)c1sccc1C (centres unmarked) [Compound 58] |  |  |  | 4.05^[b] | activity (efficacy: larval mortality) ([1]; 100 ppm): 80%; logP [3, 9]: 4.02^[c];
COC(CNC(=O)c1ccoc1I)c1ccc(Cl)cc1 (centres unmarked) [Compound 71] |  |  |  | 2.92^[b] | activity (efficacy: larval mortality) ([1]; 100 ppm): 90%; logP [3, 9]: 2.90^[c];

SMILES | nematicidal activity (percentage of gall formation) [2] [%] | log P [3, 5] | log P [3, 6] | logP [3, 8] | also measured
COC(c1ccccc1Cl)C(C)NC(=O)c1nccnc1Cl (centres unmarked) [Compound 213] | 100 | 2.76^[b] | 2.73^[c]; |  | 
CCOC(c1ccc(Cl)cc1Cl)C(C)NC(=O)c1cccnc1C(F)F (centres unmarked) [Compound 105] | 90 |  |  | 3.57^[b] | 
COC(c1ccccc1Cl)C(C)NC(=O)c1ccccc1Br (centres unmarked) [Compound 142] | 90 | 3.34^[b] | 3.31^[c]; |  | 
C=CCOC(CNC(=O)c1cccnc1Cl)c1ccc(Cl)cc1 (centres unmarked) [Compound 8] |  |  |  |  | activity (efficacy: larval mortality) ([4]; 20 ppm): 80%
CCOC(c1ccc(Cl)cc1Cl)C(C)NC(=O)c1cccnc1Cl (centres unmarked) [Compound 106] | 90 |  |  | 3.59^[b] | 
C#CCOC(CNC(=O)c1sccc1C)c1ccc(Cl)cc1 (centres unmarked) [Compound 1] |  |  |  |  | activity (efficacy: larval mortality) ([1]; 100 ppm): 80%; logP [3, 7]: 3.18^[a]
COC(c1ccc(Cl)cc1Cl)C1(NC(=O)c2nccnc2Cl)CC1 (centres unmarked) [Compound 210, 3-chloro-N-{1-[(2,4-dichlorophenyl)(methoxy)methyl]cyclopropyl}pyrazine-2-carboxamide] | 100 |  |  |  | chromatographic logP ([3]; acid HPLC method, reversed phase, read-out: Log P acid): 3.24; chromatographic logP ([3]; method [b]: LC-MS at pH 2.7, 0.1% formic acid in water / acetonitrile, read-out: log P): 3.24; chromatographic logP ([3]; method [c]: LC-MS at pH 7.8, 0.001 molar ammonium hydrogen carbonate in water / acetonitrile, read-out: log P): 3.19
COC(CNC(=O)c1ccsc1Cl)c1ccc(Cl)cc1 (centres unmarked) [Compound 70] |  |  |  | 3.15^[b] | activity (efficacy: larval mortality) ([1]; 100 ppm): 100%; logP [3, 9]: 3.13^[c];
CCOC(c1ccc(Cl)cc1Cl)C(C)NC(=O)c1ccccc1C(F)(F)F (centres unmarked) [Compound 194] | 90 | 4.50[b] | 4.44^[c]; |  | 
COC(c1ccc(Cl)cc1)C(C)NC(=O)c1ccccc1Br (centres unmarked) [Compound 131] |  | 3.29^[b] | 3.30^[c]; |  | activity (efficacy: larval mortality) ([1]; 20 ppm): 90%
COC(CNC(=O)c1cccnc1C(F)(F)F)c1ccc(Cl)cc1Cl (centres unmarked) [Compound 104] | 90 |  |  | 3.11^[b] | 
COC(c1ccc(Cl)cc1)C(C)NC(=O)c1ccsc1Br (centres unmarked) [Compound 63] |  |  |  | 3.68^[b] | activity (efficacy: larval mortality) ([1]; 100 ppm): 100%
COC(c1ccc(Cl)cc1)C(C)NC(=O)c1ccoc1I (centres unmarked) [Compound 64] |  |  |  | 3.28^[b] | activity (efficacy: larval mortality) ([1]; 20 ppm): 100%; activity (efficacy: larval mortality) ([4]; 20 ppm): 80%
COC(c1ccc(Cl)cc1Cl)C(C)NC(=O)c1ccccc1C(F)(F)F (centres unmarked) [Compound 35] | 90 |  |  |  | activity (efficacy: larval mortality) ([1]; 100 ppm): 100%; logP [3, 7]: 3.90^[a]
COC(c1ccc(F)cc1)C(C)NC(=O)c1ccccc1Cl (centres unmarked) [Compound 191] | 90 | 3.02^[b] | 2.95^[c]; |  | 
COC(CNC(=O)c1cn(C)nc1C(F)F)c1cc(Cl)cc(Cl)c1 (centres unmarked) [Compound 25] | 90 |  |  |  | 
COC(c1ccc(Cl)cc1Cl)C1(NC(=O)c2cccnc2Cl)CC1 (centres unmarked) [Compound 98] |  |  |  | 3.00^[b] | activity (efficacy: larval mortality) ([1]; 20 ppm): 80%
CCOC(c1ccc(Cl)cc1Cl)C(C)NC(=O)c1cccnc1C(F)(F)F (centres unmarked) [Compound 108] | 100 |  |  | 3.92^[b] | 
COC(c1ccccc1Cl)C(C)NC(=O)c1ccccc1Cl (centres unmarked) [Compound 156] | 90 | 3.74^[b] | 3.26^[c]; |  | 
COC(c1ccc(Cl)cc1)C(C)NC(=O)c1ccoc1C (centres unmarked) [Compound 59] |  |  |  | 3.21^[b] | activity (efficacy: larval mortality) ([1]; 100 ppm): 90%
COC(c1ccc(Cl)cc1)C(C)NC(=O)c1sccc1Cl (centres unmarked) [Compound 66] |  |  |  | 3.83^[b] | activity (efficacy: larval mortality) ([1]; 20 ppm): 90%; logP [3, 9]: 3.83^[c];
COC(c1ccc(Cl)cc1Cl)C(C)NC(=O)c1cn(C)nc1C(F)F (centres unmarked) [Compound 12] | 100 |  |  |  | activity (efficacy: larval mortality) ([1]; 100 ppm): 90%
